In brackets after ≈: the same amount, converted by molar mass.
Legend:
Type in all cases: functional
[1] = system: Nakaseomyces glabratus; assay: Antifungal activity against 36 days cultured Candida glabrata isolated from neutropenic subject with AML or MDS pharynx after 48 days of prophylaxis by broth microdilution method
[2] = system: Nakaseomyces glabratus; assay: Antifungal activity against 1 day cultured Candida glabrata isolated from HSCT recipient with acute or chronic GVHD mouth after 17 days of prophylaxis by broth microdilution method
[3] = system: Nakaseomyces glabratus; assay: Antifungal activity against 14 days cultured Candida glabrata isolated from HSCT recipient with acute or chronic GVHD mouth after 17 days of prophylaxis by broth microdilution method
[4] = system: Pichia kudriavzevii; assay: Antifungal activity against 8 days cultured Candida krusei isolated from neutropenic subject with AML or MDS stool after 12 days of prophylaxis by broth microdilution method
[5] = system: Pichia kudriavzevii; assay: Antifungal activity against 14 days cultured Candida krusei isolated from neutropenic subject with AML or MDS stool after 12 days of prophylaxis by broth microdilution method
[6] = system: Nakaseomyces glabratus; assay: Antifungal activity against 60 days cultured Candida glabrata isolated from HSCT recipient with acute or chronic GVHD mouth receiving antifungal therapy for 75 days after 33 days of prophylaxis by broth microdilution method
[7] = system: Nakaseomyces glabratus; assay: Antifungal activity against 88 days cultured Candida glabrata isolated from HSCT recipient with acute or chronic GVHD mouth receiving antifungal therapy for 75 days after 33 days of prophylaxis by broth microdilution method
[8] = system: Candida tropicalis; assay: Antifungal activity against -3 days cultured Candida tropicalis isolated from neutropenic subject with AML or MDS stool receiving antifungal therapy for 45 days after 24 days of prophylaxis by broth microdilution method
[9] = system: Candida tropicalis; assay: Antifungal activity against 2 days cultured Candida tropicalis isolated from neutropenic subject with AML or MDS pharynx receiving antifungal therapy for 45 days after 24 days of prophylaxis by broth microdilution method
[10] = system: Nakaseomyces glabratus; assay: Antifungal activity against 1 day cultured Candida glabrata isolated from HSCT recipient with acute or chronic GVHD mouth receiving antifungal therapy for 143 days after 116 days of prophylaxis by broth microdilution method
[11] = system: Nakaseomyces glabratus; assay: Antifungal activity against 12 days cultured Candida glabrata isolated from HSCT recipient with acute or chronic GVHD mouth receiving antifungal therapy for 143 days after 116 days of prophylaxis by broth microdilution method
[12] = system: Nakaseomyces glabratus; assay: Antifungal activity against 85 days cultured Candida glabrata isolated from HSCT recipient with acute or chronic GVHD mouth receiving antifungal therapy for 143 days after 116 days of prophylaxis by broth microdilution method
[13] = system: Nakaseomyces glabratus; assay: Antifungal activity against -2 days cultured Candida glabrata isolated from HSCT recipient with acute or chronic GVHD mouth receiving antifungal therapy for 168 days after 113 days of prophylaxis by broth microdilution method
[14] = system: Nakaseomyces glabratus; assay: Antifungal activity against 15 days cultured Candida glabrata isolated from HSCT recipient with acute or chronic GVHD mouth receiving antifungal therapy for 168 days after 113 days of prophylaxis by broth microdilution method
[15] = system: Nakaseomyces glabratus; assay: Antifungal activity against 43 days cultured Candida glabrata isolated from HSCT recipient with acute or chronic GVHD mouth receiving antifungal therapy for 172 days after 114 days of prophylaxis by broth microdilution method
[16] = system: Nakaseomyces glabratus; assay: Antifungal activity against 176 days cultured Candida glabrata isolated from HSCT recipient with acute or chronic GVHD mouth receiving antifungal therapy for 172 days after 114 days of prophylaxis by broth microdilution method
[17] = system: Nakaseomyces glabratus; assay: Antifungal activity against 177 days cultured Candida glabrata isolated from HSCT recipient with acute or chronic GVHD mouth receiving antifungal therapy for 172 days after 114 days of prophylaxis by broth microdilution method
[18] = system: Candida albicans; assay: Antifungal activity against Candida albicans isolated from HSCT recipients with acute or chronic GVHD prior to initiation of posaconazole therapy by broth microdilution method
[19] = system: Pichia kudriavzevii; assay: Antifungal activity against Candida krusei isolated from HSCT recipients with acute or chronic GVHD prior to initiation of posaconazole therapy assessed as maximum MIC by broth microdilution method
[20] = system: Candida albicans; assay: Antifungal activity against Candida albicans isolated from neutropenic subjects with AML or MDS receiving posaconazole assessed as maximum MIC by broth microdilution method
[21] = system: Nakaseomyces glabratus; assay: Antifungal activity against Candida glabrata isolated from neutropenic subjects with AML or MDS prior to initiation of posaconazole therapy assessed as maximum MIC by broth microdilution method
[22] = system: Nakaseomyces glabratus; assay: Antifungal activity against Candida glabrata isolated from neutropenic subjects with AML or MDS receiving posaconazole assessed as maximum MIC by broth microdilution method
[23] = system: Pichia kudriavzevii; assay: Antifungal activity against Candida krusei isolated from neutropenic subjects with AML or MDS prior to initiation of posaconazole therapy assessed as maximum MIC by broth microdilution method
[24] = system: Candida albicans; assay: Antifungal activity against Candida albicans isolated from neutropenic subjects with AML or MDS receiving fluconazole assessed as maximum MIC by broth microdilution method
[25] = system: Nakaseomyces glabratus; assay: Antifungal activity against Candida glabrata isolated from neutropenic subjects with AML or MDS prior to initiation of fluconazole therapy by broth microdilution method
[26] = system: Nakaseomyces glabratus; assay: Antifungal activity against Candida glabrata isolated from neutropenic subjects with AML or MDS receiving fluconazole by broth microdilution method
[27] = system: Nakaseomyces glabratus; assay: Antifungal activity against Candida glabrata isolated from neutropenic subjects with AML or MDS prior to initiation of fluconazole therapy assessed as maximum MIC by broth microdilution method
[28] = system: Nakaseomyces glabratus; assay: Antifungal activity against Candida glabrata isolated from neutropenic subjects with AML or MDS receiving fluconazole assessed as maximum MIC by broth microdilution method
[29] = system: Candida albicans; assay: Antifungal activity against Candida albicans isolated from HSCT recipient 262 with acute or chronic GVHD mouth after 115 days prophylaxis by broth microdilution method
[30] = system: Candida albicans; assay: Antifungal activity against Candida albicans isolated from HSCT recipient 301 with acute or chronic GVHD mouth receiving antifungal drug after 114 days prophylaxis by broth microdilution method
[31] = system: Nakaseomyces glabratus; assay: Antifungal activity against Candida glabrata isolated from neutropenic subject 1318 with AML or MDS stool receiving antifungal drug after 36 days prophylaxis by broth microdilution method
[32] = system: Nakaseomyces glabratus; assay: Antifungal activity against Candida glabrata isolated from neutropenic subject 1187 with AML or MDS stool after 22 days prophylaxis by broth microdilution method; conditions: 528 h
[33] = system: Nakaseomyces glabratus; assay: Antifungal activity against Candida glabrata isolated from neutropenic subject 1491 with AML or MDS pharynx after 23 days prophylaxis by broth microdilution method; conditions: 552 h
[34] = system: Nakaseomyces glabratus; assay: Antifungal activity against Candida glabrata isolated from neutropenic subject 1491 with AML or MDS pharynx receiving antifungal drug after 23 days prophylaxis by broth microdilution method; conditions: 552 h
[35] = system: Saccharomyces cerevisiae; assay: Antifungal activity against Saccharomyces cerevisiae isolated from HSCT recipient 513 with acute or chronic GVHD mouth receiving antifungal drug after 112 days prophylaxis by broth microdilution method
[36] = system: Candida albicans; assay: Antifungal activity against Candida albicans isolated from HSCT recipient 462 with acute or chronic GVHD mouth receiving antifungal drug after 112 days prophylaxis by broth microdilution method
[37] = system: Candida albicans; assay: Antifungal activity against Candida albicans isolated from HSCT recipient 928 with acute or chronic GVHD mouth after 112 days prophylaxis by broth microdilution method
[38] = system: Nakaseomyces glabratus; assay: Antifungal activity against Candida glabrata isolated from neutropenic subject 1331 with AML or MDS pharynx after 21 days prophylaxis by broth microdilution method; conditions: 504 h
[39] = system: Nakaseomyces glabratus; assay: Antifungal activity against Candida glabrata isolated from HSCT recipient 497 with acute or chronic GVHD mouth receiving antifungal drug after 114 days prophylaxis by broth microdilution method

In the case of `CCC(C)n1ncn(-c2ccc(N3CCN(c4ccc(OCC5COC(Cn6cncn6)(c6ccc(Cl)cc6Cl)O5)cc4)CC3)cc2)c1=O` (configuration not stated) [ITRACONAZOLE], the MIC [1] is reported as 1 µg/mL (≈ 1.42 µM), the MIC [2] is reported as > 8 µg/mL and the MIC [3] is reported as > 8 µg/mL. The MIC [4] was 0.25 µg/mL (≈ 0.354 µM), the MIC [5] was 0.25 µg/mL (≈ 0.354 µM) and the MIC [6] was 4 µg/mL (≈ 5.67 µM). For the same molecule, the MIC [7] was 2 µg/mL (≈ 2.83 µM), the MIC [8] was 0.03 µg/mL (≈ 0.0425 µM) and the MIC [9] was 0.03 µg/mL (≈ 0.0425 µM). For the same molecule, the MIC [10] was 1 µg/mL (≈ 1.42 µM), the MIC [11] was 4 µg/mL (≈ 5.67 µM) and the MIC [12] was 8 µg/mL (≈ 11.3 µM). It also gave an MIC [13] of 1 µg/mL (≈ 1.42 µM), an MIC [14] of 4 µg/mL (≈ 5.67 µM) and an MIC [15] of 2 µg/mL (≈ 2.83 µM). It also gave an MIC [16] of 8 µg/mL (≈ 11.3 µM), an MIC [17] of 1 µg/mL (≈ 1.42 µM) and an MIC50 [18] of 0.03 µg/mL (≈ 0.0425 µM). It also gave an MIC90 [18] of 0.06 µg/mL (≈ 0.085 µM), an MIC [19] of 16 µg/mL and an MIC [20] of 0.03 µg/mL. For the same molecule, the MIC [21] was 8 µg/mL, the MIC [22] was 8 µg/mL and the MIC [23] was 0.5 µg/mL. It also gave an MIC [24] of 8 µg/mL, an MIC50 [25] of 0.5 µg/mL (≈ 0.709 µM) and an MIC90 [25] of 2 µg/mL (≈ 2.83 µM). The MIC50 [26] was 0.5 µg/mL (≈ 0.709 µM), the MIC90 [26] was 2 µg/mL (≈ 2.83 µM) and the MIC [27] was 8 µg/mL. For the same molecule, the MIC [28] was 8 µg/mL, the MIC [29] was < 0.015 µg/mL and the MIC [30] was 0.25 µg/mL (≈ 0.354 µM). For the same molecule, the MIC [31] was > 8 µg/mL, the MIC [32] was 1 µg/mL (≈ 1.42 µM) and the MIC [33] was 1 µg/mL (≈ 1.42 µM). The MIC [34] was 8 µg/mL (≈ 11.3 µM), the MIC [35] was 4 µg/mL (≈ 5.67 µM) and the MIC [36] was 0.03 µg/mL (≈ 0.0425 µM). The MIC [37] was < 0.015 µg/mL, the MIC [38] was 1 µg/mL (≈ 1.42 µM) and the MIC [39] was 8 µg/mL (≈ 11.3 µM).

— ChEMBL document CHEMBL1687752, “Impact of antifungal prophylaxis on colonization and azole susceptibility of Candida species” (2009)
